We go through two molecules from PubChem BioAssay AID1963443 (Molecular Pharmacology Branch, DTP, NCI, 2024).

This assay deals with MDA-MB-231 complex spheroids, growth inhibition. Briefly: Anticancer human tumor MDA-MB-231 cell line growth inhibition [Asc].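 As to all read-outs here: spheroids exposed to compounds for 7 days.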 As to conditions: for viability, T/C: stronger effect = lower value. In a few lines:
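Tumor cells were grown as multicellular spheroids with stromal HUVEC and mesenchymal stem cells and treated singly or in combination. Concentrations fell in half-log steps from the clinical Cmax, or from 10 microM where none was known.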

Structures are written as SMILES. “And” between values parts separate entries of the source, which are not always exact repeats. Identical values can stand only once.

`O=C(c1cc(Cc2n[nH]c(=O)c3ccccc23)ccc1F)N1CCN(C(=O)C2CC2)CC1` + Cc1c(S(C)(=O)=O)c(-c2cc(F)cc(N3CCN(c4ccc(NS(=O)(=O)c5ccc(NC(CCN6CCC(C(=O)OCCCP(=O)(O)O)CC6)CSc6ccccc6)c(S(=O)(=O)C(F)(F)F)c5)cc4)CC3)c2)c(-c2ccc(Cl)cc2)n1C(C)C: the IC50 was greater than 10 µM (curve of first compound, second compound 0.1 µM); greater than 10 µM (curve of first compound, second compound 0.316 µM); greater than 10 µM (curve of first compound, second compound 1 µM); 7.46 µM (curve of first compound, second compound 3.16 µM); 6.79 µM (curve of first compound, second compound 10 µM). Moreover, the viability, T/C was 96.8% (second compound 0.1 µM, first compound 0.0316 µM); 98.9% (second compound 0.1 µM, first compound 0.1 µM); 94.9% (second compound 0.1 µM, first compound 0.316 µM); 85.7% (second compound 0.1 µM, first compound 1 µM); 78.3% (second compound 0.1 µM, first compound 3.16 µM); 68.9% (second compound 0.1 µM, first compound 10 µM). In addition, the viability, T/C was 91.7% (second compound 0.316 µM, first compound 0.0316 µM); 96.2% (second compound 0.316 µM, first compound 0.1 µM); 100% (second compound 0.316 µM, first compound 0.316 µM); 87.2% (second compound 0.316 µM, first compound 1 µM); 87% (second compound 0.316 µM, first compound 3.16 µM); 65.6% (second compound 0.316 µM, first compound 10 µM). Also, the viability, T/C (second compound 1 µM, first compound 0.0316 µM) was 97.7%; the viability, T/C (second compound 1 µM, first compound 0.1 µM) was 95.3%; the viability, T/C (second compound 1 µM, first compound 0.316 µM) is 88.8%; the viability, T/C (second compound 1 µM, first compound 1 µM) was 85%; the viability, T/C (second compound 1 µM, first compound 3.16 µM) is 77.5%; the viability, T/C (second compound 1 µM, first compound 10 µM) is 54.5%. For the same molecule, the viability, T/C (second compound 3.16 µM, first compound 0.0316 µM) is 86.8%; the viability, T/C (second compound 3.16 µM, first compound 0.1 µM) was 93.8%; the viability, T/C (second compound 3.16 µM, first compound 0.316 µM) was 89.3%; the viability, T/C (second compound 3.16 µM, first compound 1 µM) was 83.9%; the viability, T/C (second compound 3.16 µM, first compound 3.16 µM) was 72.2%; the viability, T/C (second compound 3.16 µM, first compound 10 µM) is 42.3%. For the same molecule, the viability, T/C is 102% (second compound 10 µM, first compound 0.0316 µM); 101% (second compound 10 µM, first compound 0.1 µM); 96.8% (second compound 10 µM, first compound 0.316 µM); 91% (second compound 10 µM, first compound 1 µM); 75.7% (second compound 10 µM, first compound 3.16 µM); 36.9% (second compound 10 µM, first compound 10 µM).

In the case of `CCN1C(C(=O)NC23CCC(C(=O)O)(CC2)CC3)C(c2cccc(Cl)c2F)C2(C(=O)Nc3cc(Cl)ccc32)C12CCCCC2` (configuration not stated), the viability, T/C is 96.1% and 106% (compound 0.00949 µM); 97.5% [middle of 15 runs] (compound 0.03 µM); 104% [middle of 15 runs] (compound 0.0949 µM); 105% [middle of 15 runs] (compound 0.3 µM); 112% [middle of 15 runs] (compound 0.949 µM). The IC50 is, setting by setting: (compound alone, run of 10/11/2022) greater than 3 µM; (curve of compound) greater than 3 µM.
